The record followed here is patent US20250195485A1, “PROPIONIC ACID DERIVATIVE AND MEDICAL USE THEREOF” (Xizang Haisco Pharmaceutical Co., Ltd., priority 2021, published 2025).

One data set deals with T1, integrin α4β7 (Homo sapiens, UniProt P13612+P26010).
T1 sequence (P13612 34-1032): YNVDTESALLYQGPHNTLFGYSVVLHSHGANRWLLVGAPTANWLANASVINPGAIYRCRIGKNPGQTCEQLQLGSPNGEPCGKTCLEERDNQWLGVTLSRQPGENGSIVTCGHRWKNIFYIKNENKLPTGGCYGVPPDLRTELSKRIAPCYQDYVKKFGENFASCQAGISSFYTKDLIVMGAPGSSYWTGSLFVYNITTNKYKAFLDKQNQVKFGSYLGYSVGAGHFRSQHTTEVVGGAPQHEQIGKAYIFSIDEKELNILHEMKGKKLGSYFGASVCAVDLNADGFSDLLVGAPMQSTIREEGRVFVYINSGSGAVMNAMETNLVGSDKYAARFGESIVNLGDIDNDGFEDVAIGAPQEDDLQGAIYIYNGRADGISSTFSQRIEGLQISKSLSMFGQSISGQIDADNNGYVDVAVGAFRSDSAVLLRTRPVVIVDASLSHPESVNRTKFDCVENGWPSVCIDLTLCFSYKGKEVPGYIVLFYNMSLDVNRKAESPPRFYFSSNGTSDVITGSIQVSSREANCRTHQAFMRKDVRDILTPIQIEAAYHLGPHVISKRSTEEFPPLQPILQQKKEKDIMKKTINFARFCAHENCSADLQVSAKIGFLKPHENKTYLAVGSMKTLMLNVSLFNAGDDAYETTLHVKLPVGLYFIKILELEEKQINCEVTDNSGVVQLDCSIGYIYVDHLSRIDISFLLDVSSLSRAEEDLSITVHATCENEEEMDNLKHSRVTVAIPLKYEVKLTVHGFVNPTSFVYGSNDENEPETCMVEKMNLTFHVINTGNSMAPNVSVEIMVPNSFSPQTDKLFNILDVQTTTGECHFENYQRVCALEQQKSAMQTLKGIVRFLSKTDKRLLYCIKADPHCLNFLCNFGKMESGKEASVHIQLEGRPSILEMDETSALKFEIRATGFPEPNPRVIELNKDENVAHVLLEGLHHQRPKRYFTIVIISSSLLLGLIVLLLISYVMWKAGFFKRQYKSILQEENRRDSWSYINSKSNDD
T1 sequence (P26010 20-798): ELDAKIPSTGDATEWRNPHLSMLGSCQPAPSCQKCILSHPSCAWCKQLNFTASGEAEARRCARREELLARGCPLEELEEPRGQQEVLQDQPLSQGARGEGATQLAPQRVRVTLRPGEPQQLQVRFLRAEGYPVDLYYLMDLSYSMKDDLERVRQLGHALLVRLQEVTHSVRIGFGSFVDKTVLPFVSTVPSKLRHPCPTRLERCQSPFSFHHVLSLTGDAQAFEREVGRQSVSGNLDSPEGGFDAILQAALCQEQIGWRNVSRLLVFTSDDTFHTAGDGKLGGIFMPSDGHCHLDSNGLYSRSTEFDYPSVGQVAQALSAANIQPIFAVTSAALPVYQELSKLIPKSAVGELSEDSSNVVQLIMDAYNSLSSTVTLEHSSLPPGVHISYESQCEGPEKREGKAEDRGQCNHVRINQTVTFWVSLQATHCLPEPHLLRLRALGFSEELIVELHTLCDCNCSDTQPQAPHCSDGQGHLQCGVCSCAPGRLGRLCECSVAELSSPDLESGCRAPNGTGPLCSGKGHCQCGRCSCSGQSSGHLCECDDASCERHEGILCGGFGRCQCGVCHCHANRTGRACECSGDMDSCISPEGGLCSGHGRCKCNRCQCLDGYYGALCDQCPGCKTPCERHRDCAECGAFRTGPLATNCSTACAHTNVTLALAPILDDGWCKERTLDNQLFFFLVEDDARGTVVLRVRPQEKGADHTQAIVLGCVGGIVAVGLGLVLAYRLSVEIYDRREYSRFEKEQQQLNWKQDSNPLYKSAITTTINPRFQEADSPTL
Nature of the data set: Integrin α4β7-mediated cell adhesion assay (RPM18866 cells on MAdCAM-1). Particulars: for IC50: RPMI-8866 cells adhering to MAdCAM-1; for α4β1/α4β7: selectivity ratio of α4β1 IC50 to α4β7 IC50 in cell adhesion. It is filed as cell-based. As for the experimental part:
MAdCAM-1 was formulated with TBS buffer to a final concentration of 2 μg/ml, 50 μl of the solution was transferred to a 96-well plate, and the plate was coated with same at 4° C. overnight. The plate was washed with TBS buffer three times, then 150 μl of a blocking solution (TBS buffer containing 1% BSA) was added, and the plate was blocked at 37° C. for 1 h. […] 50 μl of the cell suspension was transferred to a 96-well plate so that the cell density reached 2×10^5 cells/well. Then 1 μl of the compound at different concentrations or DMSO was added and the plate was incubated at 37° C. for 1 h or 2 h. The plate was washed with TBS buffer to remove non-adherent cells. 50 μl of a substrate (4-nitrophenyl-N-acetyl-β-D-glucosaminide) was added and the plate was incubated at 37° C. for 2 h. […] The IC50 value was calculated using GraphPad Prism 6 software.

Another data set concerns the target T2, integrin α4β1 (Homo sapiens, UniProt P05556+P13612).
T2 construct: Jurkat cells were collected, washed twice using DPBS buffer; endogenous in cells; host or cells: Jurkat cells
Nature of the data set: Integrin α4β1-mediated cell adhesion assay (Jurkat cells on VCAM). Format: cell-based. The settings on record: Jurkat cells adhering to VCAM-1. As for the experimental part:
VCAM was formulated into a final concentration of 0.5 μg/ml with a coating buffer, 50 μl of the solution was transferred to a 96-well plate, and the plate was coated with same at 4° C. overnight. The plate was washed with coating buffer three times, then 150 μl of a blocking solution (coating buffer containing 1% BSA) was added, and the plate was blocked at 37° C. for 1 h. […] 50 μl of the cell suspension was transferred to a 96-well plate so that the cell density reached 2×10^5 cells/well. Then 1 μl of the test compound at different concentration or DMSO was added and the plate was incubated at 37° C. for 1 h. The plate was washed with coating buffer to remove non-adherent cells. 50 μl of a substrate (4-nitrophenyl-N-acetyl-β-D-glucosaminide) was added and the plate was incubated at 37° C. for 2 h. […] The […] was calculated using GraphPad Prism 6 software. The results are shown in Table 1. • Coating buffer: DMEM+20 mM HEPES+0.4 mM MnC2 • Action buffer: DMEM+20 mM HEPES+0.1% BSA+0.4 mM MnCl2 • DMEM: dulbecco's modified eagle medium; • HEPES: 2-[4-(2-hydroxyethyl)piperazin-1-yl]ethanesulfonic acid

A short description of data set [1]: Pharmacokinetic test in mice. The settings on record: male BALB/c mice. Format: in vivo. As for the experimental part:
Experimental animals: male BALB/c mice, 20-25 g, 6 mice/compound. Purchased from Chengdu Ddossy Experimental Animals Co., Ltd.
Test design: on the day of the test, 6 BALB/c mice were randomly grouped according to their body weights. The animals were fasted with water available for 12 to 14 h one day before the administration, and were fed 4 h after the administration.
Before and after the administration, 0.06 mL of blood was taken from the orbit of the animals under isoflurane anesthesia and placed in an EDTAK2 centrifuge tube. The blood was centrifuged at 5000 rpm and 4° C. for 10 min to collect the plasma. The blood collection time points for the intravenous group and intragastric administration group were: 0 min, 5 min, 15 min, 30 min, 1 h, 2 h, 4 h, 6 h, 8 h, and 24 h. Before analysis and detection, all samples were stored at −80° C. The samples were analyzed quantitatively by LC-MS/MS.

T2 sequence (P05556 21-798, one chain of several): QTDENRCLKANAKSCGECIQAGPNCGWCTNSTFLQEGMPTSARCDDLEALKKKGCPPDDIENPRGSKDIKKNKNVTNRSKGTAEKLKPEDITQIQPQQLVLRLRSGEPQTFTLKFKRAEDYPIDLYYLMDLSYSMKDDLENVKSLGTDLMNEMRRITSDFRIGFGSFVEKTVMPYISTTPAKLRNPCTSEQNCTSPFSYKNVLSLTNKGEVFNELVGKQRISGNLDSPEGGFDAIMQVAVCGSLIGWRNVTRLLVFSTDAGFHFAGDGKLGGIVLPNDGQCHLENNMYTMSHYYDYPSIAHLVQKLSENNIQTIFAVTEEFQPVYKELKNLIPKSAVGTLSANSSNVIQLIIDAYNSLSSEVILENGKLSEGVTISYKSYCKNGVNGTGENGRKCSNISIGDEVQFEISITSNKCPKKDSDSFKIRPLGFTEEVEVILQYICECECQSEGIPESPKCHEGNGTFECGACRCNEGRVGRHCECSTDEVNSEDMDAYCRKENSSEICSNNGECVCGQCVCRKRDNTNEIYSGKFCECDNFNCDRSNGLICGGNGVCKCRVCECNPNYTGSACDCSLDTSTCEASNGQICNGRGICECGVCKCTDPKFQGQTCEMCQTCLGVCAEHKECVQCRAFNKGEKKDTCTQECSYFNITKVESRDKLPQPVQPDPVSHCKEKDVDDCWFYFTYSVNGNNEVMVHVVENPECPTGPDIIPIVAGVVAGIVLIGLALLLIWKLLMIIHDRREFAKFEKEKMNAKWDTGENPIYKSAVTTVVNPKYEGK

`Cc1cc(-c2c(C)cccc2C)cc(C(CC(=O)O)NC(=O)C(CC(C)C)n2cc(CCN3CC(CF)C3)cc(F)c2=O)c1F` (stereo not shown) [Compound 13] displayed an IC50 on integrin α4β7 below 10 nM.
`Cc1cc(F)cc(C)c1-c1cc(C(CC(=O)O)NC(=O)C(CC(C)C)n2cc(CCN(C)C)c(C(F)(F)F)cc2=O)cc2c1CCC2` (stereo not shown) [Compound 30-2]: on integrin α4β7, the IC50 is below 0.5 nM and the α4β1/α4β7 stood at 1011.7. The compound also displayed an IC50 against integrin α4β1 of 91.1 nM.
As for `C#Cc1ncc(C(CC(=O)O)NC(=O)C(CC(C)C)n2cc(CCN3CC(F)C3)cc(F)c2=O)cc1-c1c(C)cccc1C` (stereo not shown) [Compound 14], on integrin α4β7, the IC50 was below 0.5 nM and the α4β1/α4β7 is recorded as above 500. This compound registered an IC50 on integrin α4β1 of 126 nM.
For `Cc1cc(F)cc(C)c1-c1cc(C(CC(=O)O)NC(=O)C(CC(C)C)n2cc(CCN(C)C)c(C(F)(F)F)cc2=O)cc2nccn12` (stereo not shown) [Trifluoroacetate of compound 20-2], on integrin α4β7, the IC50 is below 0.5 nM and the α4β1/α4β7 is given as above 100. Moreover, the IC50 against integrin α4β1 came to 36.6 nM.
`Cc1cc(C)c(-c2cc(C(CC(=O)O)NC(=O)C(CC(C)C)n3cc(CCN(C)C)c(C(F)(F)F)cc3=O)cn3ccnc23)c(C)c1` (stereo not shown) [Trifluoroacetate of compound 22-2] returned an IC50 on integrin α4β7 below 10 nM.
As for `C#Cc1cc(-c2c(C)cc(F)cc2C)cc(C(CC(=O)O)NC(=O)C(CC(C)C)n2cc(CCN(C)C)c(C(F)(F)F)cc2=O)c1F` (stereo not shown) [Compound 26-2], the IC50 against integrin α4β7 was below 0.5 nM.
In turn, `Cc1cc(-c2c(C)cc(F)cc2C)cc([C@H](CC(=O)O)NC(=O)[C@H](CC(C)C)n2cc(CCN(C)C)c(C(F)(F)F)cc2=O)c1F` [Control compound A, reference compound] showed a F in data set [1] (intragastrically 10 mg/kg vs intravenously 1 mg/kg) of 28.2%. Also, the clearance in data set [1] (mouse, intravenous, plasma, groups: intravenously 1 mg/kg, intragastrically 10 mg/kg (route for this parameter not stated)) worked out at 56 mL/min/kg. In data set [1] (mouse, plasma, oral absorption results, groups: intravenously 1 mg/kg, intragastrically 10 mg/kg (route for this parameter not stated)), the AUC was 830 ng·h/mL.
Compound `Cc1ccn(C(CC(C)C)C(=O)NC(CC(=O)O)c2cc(-c3c(C)cccc3C)n3ccnc3c2)c(=O)c1` (stereo not shown) [Compound 9] yielded an IC50 at integrin α4β7 below 10 nM.

In general, IC50 refers to the point on the concentration scale where inhibition reaches its midpoint. A high value points to lower potency. What is called clearance is a measure of how efficiently the substance is removed, as volume per time. As usually defined, the AUC is concentration integrated over time. High values mean more exposure, low ones less exposure.
